# Where a SMILES comes first, the peptide text is derived from it. [ ]: non-standard residue; d: D form. The star is where a group is joined. ξ: configuration not given here. Palmitoyl = CCCCCCCCCCCCCCCC(=O)*; ξF = NC(Cc1ccccc1)C(=O)O
# What was measured:
# [1] = test system: mouse brain microvascular endothelial cells; assay: Endothelial cell leakage (transmembrane resistance); format: cell-based; conditions: 20 μM, 36 h; for sSema4D-induced endothelial cell leakage: sSema4D 1600 ng/mL
# Method: A layer of fibronectin was first applied to coat the upper layer of a 24-well transwell chamber (0.4 um) and incubated at room temperature for 1 h; after coating, the mouse brain microvascular endothelial cells were seeded, and cultured for 5 days until the cells were full, and then FH (20 μM), FG (20 μM), and Sema4D neutralizing antibody (BMA-12) (2 μg/μL) were added to the medium (the concentration of sSema4D in the medium was 1600 ng/mL), respectively. An equal volume of DMSO was added as a control, and ECM was used as a blank control. After incubation for 36 h, the resistance value was measured by a cell transmembrane resistance measuring instrument.
# [2] = test system: primary mouse brain microvascular pericytes; assay: Pericyte migration (transwell experiment); format: cell-based; conditions: 20 μM, 36 h; for sSema4D-induced pericyte migration: sSema4D 1600 ng/mL
# Method: The primary mouse brain microvascular pericytes were starved with 0.5% PM for 4 to 6 h. The pericytes were seeded in the upper layer of a 24-well transwell chamber (8 μm). The medium containing FH (20 μM), FG (20 μM), and Sema4D neutralizing antibody (BMA-12) (2 μg/μL) (the concentration of sSema4D in the medium is 1600 ng/mL) was added to the lower chamber, and an equal volume of DMSO was added as control. The cells were incubated in a 5% CO2 incubator at 37° C. for 36 h. 36 h later, the cells on the bottom of the chamber were fixed with 4% paraformaldehyde and stained with crystal violet, and the pericytes that penetrated to the bottom of the chamber were counted under a microscope.
# sSema4D [3] = biological target: T1, sSema4D (Mus musculus, UniProt O09126); assay: sSema4D concentration in a simple medium system (ELISA); format: biochemical; parameters: the free Sema4D protein after enzyme cleavage of Sema4D, that is, the sSema4D protein purchased from R&D Systems Company; purchased R&D Systems; conditions: for sSema4D concentration: sSema4D 1600 ng/mL, peptides 20 μM, antibody 2 μg/μL
# T1 sequence (O09126 24-733 limits assumed): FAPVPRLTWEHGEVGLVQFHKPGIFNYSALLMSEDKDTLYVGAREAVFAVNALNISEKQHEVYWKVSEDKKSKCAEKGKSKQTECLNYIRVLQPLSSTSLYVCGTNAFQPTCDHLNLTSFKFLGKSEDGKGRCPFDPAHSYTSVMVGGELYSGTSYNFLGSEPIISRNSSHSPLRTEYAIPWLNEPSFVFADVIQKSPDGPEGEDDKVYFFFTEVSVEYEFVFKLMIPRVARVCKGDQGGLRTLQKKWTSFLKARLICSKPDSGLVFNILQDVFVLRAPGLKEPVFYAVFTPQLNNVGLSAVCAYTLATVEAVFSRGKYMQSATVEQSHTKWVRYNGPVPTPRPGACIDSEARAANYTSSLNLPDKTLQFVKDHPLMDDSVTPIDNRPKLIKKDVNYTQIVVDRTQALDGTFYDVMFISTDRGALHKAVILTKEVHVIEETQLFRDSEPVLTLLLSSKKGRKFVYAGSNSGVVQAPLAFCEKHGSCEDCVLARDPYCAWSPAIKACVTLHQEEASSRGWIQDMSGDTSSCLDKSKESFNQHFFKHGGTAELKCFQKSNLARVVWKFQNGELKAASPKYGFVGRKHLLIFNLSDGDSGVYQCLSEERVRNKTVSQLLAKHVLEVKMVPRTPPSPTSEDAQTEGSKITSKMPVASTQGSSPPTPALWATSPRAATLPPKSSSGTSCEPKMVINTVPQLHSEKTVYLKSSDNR
# Method: The nano small peptides FH, FG, DMSO, and Sema4D neutralizing antibody (BMA-12) were added to the medium (the concentration of sSema4D in the medium was 1600 ng/mL) to ensure that the final concentration of FH and FG was 20 μM, and the final concentration of the Sema4D neutralizing antibody (BMA-12) (BMA-12, i.e., anti-Sema4D) was 2 μg/μL, an equal volume of DMSO was then added as a control, and culture plates were set still at 37° C. for 12, 24, 36, and 48 h, and the culture medium was collected, and the expression of Sema4D protein in the supernatant was detected using an ELISA kit (Shanghai Yuanmu Biotechnology Co., Ltd.).
# sSema4D [4] = biological target: T1, sSema4D; assay: ELISA of sSema4D in vitreous humor after eye drops; format: in vivo; parameters: release and collect the vitreous humor; from tissue; host or cells: vitreous humor of C57 mice; conditions: C57 mice, 10 μL of 20 μM eye drops, morning and evening, 3 days
# Source text: In this example, 8-week-old C57 male mice were used, with ten data points in each group, and each data point was the average of the experimental results of 5 mice.
# The water on the eyeballs was then removed with filter paper to release and collect the vitreous humor. ELISA kit (Shanghai Yuanmu Biotechnology Co., Ltd.) was used to detect the expression of sSema4D protein in vitreous humor.
# Control group was instilled with the same volume of PBS solution; vehicle group was instilled the same volume of artificial tears (Systane).
# [5] = test system: endothelial cells (primary endothelial cells of mouse brain microvessels); assay: CCK8 cytotoxicity assay; format: cell-based; conditions: 20 μM; 12, 14, and 36 h
# sSema4D [6] = biological target: T1, sSema4D; assay: CD spectra of nanoparticles before and after induction by sSema4D protein; format: physicochemical; parameters: the free Sema4D protein after enzyme cleavage of Sema4D, that is, the sSema4D protein purchased from R&D Systems Company; purchased R&D Systems; conditions: 20 μM; for CD secondary structure before induction by sSema4D protein: H2O containing 0.5% dimethyl sulfoxide, signal at 200 nm negative; for CD secondary structure after induction by sSema4D protein: signal at 200 nm positive, negative signal at 220 nm
# Method: First, FG and FH nanoparticle solutions with a concentration of 20 μM were prepared as follows. 0.01 mmol of FG (or FH) was weighed and dissolved in 1 mL of DMSO solution, and then diluted into 5 folds to a concentration of 2 mM, thus obtaining mother solution A. 10 μL of mother solution A was quickly added to 1 mL of water, and the resulting solution was then vortexed for 30 s to obtain a nanoparticle solution. Second, samples were made. 10 ul of FG (or FH) solution was added dropwise onto a copper mesh for 5 min, and the excess solution was removed with filter paper. 10 μL of uranyl acetate stain was added dropwise for 5 min, and the excess stain was removed with filter paper. Washing with 10 μl of deionized water was carried out once. The samples were dried in vacuum overnight. Finally, transmission electron microscopy observations were performed on an HT-7700 transmission electron microscope (Hitachi, Tokyo, Japan). Scale bar was 200 nm.
# The CD spectra of FH and FG nanoparticles (20 μM) were collected at room temperature using a CD spectrometer (JASCO-1500, Tokyo, Japan) with an optical path length of 1 mm. Measurements were performed between 190 nm and 300 nm with a resolution of 1.0 nm at a scan speed of 300 nm/min. For each measurement, three spectra were collected and averaged.
Compound,"effect on endothelial cell leakage compared with Sema4D neutralizing antibody (BMA-12, 2 μg/μL) [1]",sSema4D-induced endothelial cell leakage [1],"inhibition of pericyte migration compared with Sema4D neutralizing antibody (BMA-12, 2 μg/μL) [2]",sSema4D-induced pericyte migration [2],sSema4D concentration (sSema4D [3]; 24 h),sSema4D concentration (sSema4D [3]; 36 h),effect on sSema4D concentration compared with FG (sSema4D [3]; within the same action time),expression of sSema4D protein in the vitreous humor (sSema4D [4]),toxic effects on endothelial cells [5],CD secondary structure before induction by sSema4D protein (sSema4D [6]),CD secondary structure after induction by sSema4D protein (sSema4D [6])
"CCCCCCCCCCCCCCCC(=O)NC(Cc1ccccc1)C(=O)N[C@@H](Cc1ccccc1)C(=O)N[C@H](C(=O)N[C@@H](CC(C)C)C(=O)N[C@@H](CCCCN)C(=O)N[C@@H](CCCCN)C(=O)N[C@@H](CCC(N)=O)C(=O)N[C@@H](CCCCN)C(=O)N[C@@H](CCCNC(=N)N)C(=O)N1CCC[C@H]1C(=O)N[C@@H](CCCNC(=N)N)C(=O)N[C@@H](Cc1c[nH]cn1)C(=O)O)C(C)C (stereo in doubt) [FH, hexadecanoyl-FFVLK-KQKRPRH]",comparable,significantly inhibit,more effective,significantly inhibit,can reduce the sSema4D concentration,can still reduce the sSema4D concentration,better than that of FG,reduce the expression of sSema4D protein in the vitreous humor,did not cause toxic effects,random coil structure,transition to a β-sheet folded structure
CCCCCCCCCCCCCCCC(=O)NC(Cc1ccccc1)C(=O)N[C@@H](Cc1ccccc1)C(=O)N[C@H](C(=O)N[C@@H](CC(C)C)C(=O)N[C@@H](CCCCN)C(=O)N[C@@H](CCCCN)C(=O)N[C@@H](CC(N)=O)C(=O)N[C@@H](CCCCN)C(=O)N[C@@H](C)C(=O)N[C@@H](C)C(=O)N[C@@H](CCCCN)C(=O)NCC(=O)O)C(C)C (some centres unmarked) [FG] (Palmitoyl-[ξF]FVLKKNKAAKG-OH),comparable,significantly inhibit,,significantly inhibit,can reduce the sSema4D concentration,can still reduce the sSema4D concentration,,reduce the expression of sSema4D protein in the vitreous humor,did not cause toxic effects,random coil structure,transition to a β-sheet folded structure

# Source: patent US12297296B2, “Nano small peptide and its use in preparation of drugs for treating and preventing fundus vascular diseases” (FUTU Biotech Co., Ltd., priority 2021, dated 2025)
